Measured values published in ChEMBL document CHEMBL3217472, “Identification of novel urea derivatives as PTP1B inhibitors: synthesis, biological evaluation and structureactivity relationships” (Medchemcomm, 2013).
The source made the active and inactive calls. No cut-off for these calls is given here.

Tests used:
Rattus norvegicus [1] = test: Antihyperglycemic activity in streptozotocin-induced Sprague-Dawley albino rat diabetic model assessed as reduction of blood glucose AUC (0 to 24 hrs) at 100 mg/kg, po by glucometer relative to control; type: functional; design: scale not given: the % may be the effect or the level left
Rattus norvegicus [2] = test: Antihyperglycemic activity in streptozotocin-induced Sprague-Dawley albino rat diabetic model assessed as reduction of blood glucose AUC (0 to 5 hrs) at 100 mg/kg, po by glucometer relative to control; type: functional; design: scale not given: the % may be the effect or the level left
[3] = biological target: T1, Tyrosine-protein phosphatase non-receptor type 1 (Homo sapiens) (UniProt P18031); test: Inhibition of human recombinant PTP1B using phosphopeptide as substrate at 10 uM after 30 mins by malachite green assay relative to control
T1 sequence (whole entry): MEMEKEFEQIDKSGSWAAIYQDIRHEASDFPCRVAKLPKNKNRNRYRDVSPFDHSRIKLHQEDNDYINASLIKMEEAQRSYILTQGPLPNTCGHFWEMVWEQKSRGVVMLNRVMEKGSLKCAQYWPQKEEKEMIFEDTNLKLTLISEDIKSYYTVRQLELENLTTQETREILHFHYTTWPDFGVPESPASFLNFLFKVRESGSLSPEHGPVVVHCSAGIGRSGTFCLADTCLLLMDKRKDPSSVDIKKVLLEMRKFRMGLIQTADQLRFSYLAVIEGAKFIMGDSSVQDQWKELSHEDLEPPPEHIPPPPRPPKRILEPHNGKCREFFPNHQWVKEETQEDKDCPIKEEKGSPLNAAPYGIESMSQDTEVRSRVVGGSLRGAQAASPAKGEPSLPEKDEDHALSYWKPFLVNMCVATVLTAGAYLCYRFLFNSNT

[4] = biological target: T2, Tyrosine-protein phosphatase non-receptor type 1 (Homo sapiens, UniProt P18031); test: Inhibition of human recombinant PTP1B using phosphopeptide as substrate after 30 mins by malachite green assay
T2 sequence (P18031 whole entry): T1 sequence (whole entry)

Mus musculus [5] = test: Antihyperglycemic activity in C57BL/Ks db/db mouse assessed as reduction of blood glucose level at 10 mg/kg measured from day 6 to day 14; type: functional, organism-based; design: dose 10 mg/kg
Mus musculus [6] = test: In vivo inhibition of PTP1B in skeletal muscle of C57BL/Ks db/db mouse assessed as upregulation of p-IRSI protein expression at 10 mg/kg, po by Western blot analysis relative to vehicle-treated sham control; type: functional, Muscle tissue
Mus musculus [7] = test: Antidiabetic activity in C57BL/Ks db/db mouse assessed as improvement of HOMA index at 10 mg/kg relative to vehicle-treated sham control; type: functional
Mus musculus [8] = test: Antidiabetic activity in C57BL/Ks db/db mouse assessed as restoration of altered insulin level in serum at 10 mg/kg relative to vehicle-treated sham control; type: functional
Mus musculus [9] = test: Antidiabetic activity in C57BL/Ks db/db mouse assessed as normalization of fasting blood glucose level at 10 mg/kg relative to vehicle-treated sham control; type: functional
Mus musculus [10] = test: Antidyslipidemic activity in C57BL/Ks db/db mouse assessed as increase in serum HDL-cholesterol level at 10 mg/kg measured on day 10 to 15 relative to vehicle-treated sham control; type: functional
Mus musculus [11] = test: Antidyslipidemic activity in C57BL/Ks db/db mouse assessed as reduction of serum cholesterol level at 10 mg/kg measured on day 10 to 15 relative to vehicle-treated sham control; type: functional
Mus musculus [12] = test: Antidyslipidemic activity in C57BL/Ks db/db mouse assessed as reduction of serum triglyceride level at 10 mg/kg measured on day 10 to 15 relative to vehicle-treated sham control; type: functional
Mus musculus [13] = test: Antihyperglycemic activity in C57BL/Ks db/db mouse assessed as reduction of blood glucose AUC (0 to 120 mins) at 10 mg/kg, po measured on day 15 by OGTT relative to vehicle-treated sham control; type: functional
Mus musculus [14] = test: Antihyperglycemic activity in C57BL/Ks db/db mouse assessed as reduction of blood glucose AUC (0 to 120 mins) at 10 mg/kg measured on day 10 by OGTT relative to vehicle-treated sham control; type: functional
Mus musculus [15] = test: Antihyperglycemic activity in C57BL/Ks db/db mouse assessed as reduction of blood glucose level at 30 mg/kg measured from day 8 to day 14; type: functional, organism-based; design: dose 30 mg/kg
Mus musculus [16] = test: In vivo inhibition of PTP1B in skeletal muscle of C57BL/Ks db/db mouse assessed as upregulation of p-IRSI protein expression at 30 mg/kg, po by Western blot analysis relative to vehicle-treated sham control; type: functional, Muscle tissue
Mus musculus [17] = test: Antidiabetic activity in C57BL/Ks db/db mouse assessed as improvement of HOMA index at 30 mg/kg relative to vehicle-treated sham control; type: functional
Mus musculus [18] = test: Antidiabetic activity in C57BL/Ks db/db mouse assessed as restoration of altered insulin level in serum at 30 mg/kg relative to vehicle-treated sham control; type: functional
Mus musculus [19] = test: Antidiabetic activity in C57BL/Ks db/db mouse assessed as normalization of fasting blood glucose level at 30 mg/kg relative to vehicle-treated sham control; type: functional
Mus musculus [20] = test: Antidyslipidemic activity in C57BL/Ks db/db mouse assessed as increase in serum HDL-cholesterol level at 30 mg/kg measured on day 10 to 15 relative to vehicle-treated sham control; type: functional
Mus musculus [21] = test: Antidyslipidemic activity in C57BL/Ks db/db mouse assessed as reduction of serum cholesterol level at 30 mg/kg measured on day 10 to 15 relative to vehicle-treated sham control; type: functional
Mus musculus [22] = test: Antidyslipidemic activity in C57BL/Ks db/db mouse assessed as reduction of serum triglyceride level at 30 mg/kg measured on day 10 to 15 relative to vehicle-treated sham control; type: functional
Mus musculus [23] = test: Antihyperglycemic activity in C57BL/Ks db/db mouse assessed as reduction of blood glucose AUC (0 to 120 mins) at 30 mg/kg measured on day 15 by OGTT relative to vehicle-treated sham control; type: functional
Mus musculus [24] = test: Antihyperglycemic activity in C57BL/Ks db/db mouse assessed as reduction of blood glucose AUC (0 to 120 mins) at 30 mg/kg measured on day 10 by OGTT relative to vehicle-treated sham control; type: functional
[25] = biological target: T2, Tyrosine-protein phosphatase non-receptor type 1; test: Competitive inhibition of human recombinant PTP1B using IR5 as substrate by Lineweaver-Burk plot analysis

Compound	inhibition [3]	Activity (Rattus norvegicus [1])	Activity (Rattus norvegicus [2])	also measured
CN(C)C(=N)NC(=N)N [METFORMIN]		23.3%	21%	
O=C(NCc1ccccc1)NCc1ccsc1	31.2%			
O=C(NCc1ccccc1)NCc1ccc(-c2ccc([N+](=O)[O-])cc2)o1	21.4%	18.8%	12.5%	
COc1cc(Cl)c(CNC(=O)NCc2cccc([N+](=O)[O-])c2)c(Cl)c1OC	56.6%	2.54%	7.26%	IC50 [4]: 9.91 µM
COc1cc(CNC(=O)NCc2cccc([N+](=O)[O-])c2)cc(OC)c1	2.81%			
CCc1ccc(CCOc2ccc(CC3SC(=O)NC3=O)cc2)nc1 (stereo unspecified) [PIOGLITAZONE]				Activity (Mus musculus [5]): Active; fold change (FC) (Mus musculus [6]): 1.37; Efficacy (Mus musculus [7]): 70.3%; Efficacy (Mus musculus [8]): 46.1%; Efficacy (Mus musculus [9]): 64.7%; Efficacy (Mus musculus [10]): 11.1%; Efficacy (Mus musculus [11]): 9.17%; Efficacy (Mus musculus [12]): 12.6%; Efficacy (Mus musculus [13]): 52.9%; Efficacy (Mus musculus [14]): 40.8%
COc1cc(CNC(=O)NCc2ccccc2)ccc1O	14.9%			
COc1cc(Cl)c(CNC(=O)NCc2ccccc2)c(Cl)c1OC	13.7%			
COc1cc(OC)c(CNC(=O)NCc2ccccc2)c(OC)c1	78.8%	18.6%	16.1%	IC50 [4]: 7.6 µM
O=C(NCc1ccccc1)NCc1c[nH]c2ccc(Cl)cc12	19%			
CC(=O)Nc1ccc(CNC(=O)NCc2ccccc2)cc1	60.9%	14.8%	14.2%	IC50 [4]: 9.39 µM
COc1cc(CNC(=O)NCc2cccc([N+](=O)[O-])c2)cc(OC)c1OC	7.5%			
CC(C)(C)c1cc(CNC(=O)NCc2ccccc2)c(O)c(C(C)(C)C)c1	18.9%			
Cc1ccc(C(=O)Nc2ccc(S(=O)(=O)O)c3cc(S(=O)(=O)O)cc(S(=O)(=O)O)c23)cc1NC(=O)c1cccc(NC(=O)Nc2cccc(C(=O)Nc3cc(C(=O)Nc4ccc(S(=O)(=O)O)c5cc(S(=O)(=O)O)cc(S(=O)(=O)O)c45)ccc3C)c2)c1	60%			
O=C(NCc1ccccc1)NCc1ccc([N+](=O)[O-])cc1	0.9%			

Now from value to compound, other results behind:

inhibition [3]	Compound	Activity (Rattus norvegicus [1])	Activity (Rattus norvegicus [2])	also measured
2.1%	O=C(NCc1ccccc1)NCc1ccccc1[N+](=O)[O-]			
79.4%	O=C(NCc1cccc([N+](=O)[O-])c1)NCc1ccccc1[N+](=O)[O-]	21.7%	20.4%	Activity (Mus musculus [15]): Active; fold change (FC) (Mus musculus [16]): 1.25; Efficacy (Mus musculus [17]): 69.7%; Efficacy (Mus musculus [18]): 34.5%; Efficacy (Mus musculus [19]): 52.3%; Efficacy (Mus musculus [20]): 46.8%; Efficacy (Mus musculus [21]): 16.3%; Efficacy (Mus musculus [22]): 8.9%; Efficacy (Mus musculus [23]): 35.9%; Efficacy (Mus musculus [24]): 24.1%; Ki [25]: 7.88 µM; IC50 [4]: 7.47 µM
68.4%	O=C(NCc1cccc([N+](=O)[O-])c1)NCc1ccc(-c2ccc([N+](=O)[O-])cc2)o1	20%	18.4%	IC50 [4]: 8.06 µM
40%	O=C(NCc1cccc([N+](=O)[O-])c1)NCc1cccc(-c2cccc([N+](=O)[O-])c2)n1			
32.9%	O=C(NCc1cccc(Cl)c1)NCc1cccc([N+](=O)[O-])c1			
2.85%	COc1ccc(CNC(=O)NCc2cccc([N+](=O)[O-])c2)cc1			
2.4%	O=C(NCc1ccccc1)NCc1cccc([N+](=O)[O-])c1			
46.8%	O=C(NCc1cccc([N+](=O)[O-])c1)NCc1ccco1			
